Converted amounts (≈) assume the structure as drawn. Where two headings read alike, the source gives them in different places.
How the values were obtained:
[1] = system: Mycobacterium smegmatis ATCC 607; experiment: Antimicrobial activity, broth double microdilution MIC; assay type: cell-based; conditions: Mycolicibacterium smegmatis
[2] = system: Candida albicans ATCC 60193; experiment: Antifungal activity, broth double microdilution MIC; assay type: cell-based
S. cerevisiae RSKK 251 = experiment: as above; assay type: cell-based; conditions: Saccharomyces cerevisiae
urease = urease (Canavalia ensiformis, UniProt P07374); experiment: Urease inhibitory activity (Van Slyke and Archibald)
[3] = system: Escherichia coli ATCC 25922; experiment: Antimicrobial activity, broth double microdilution MIC; assay type: cell-based; conditions: ATCC25922, pH 7.3, read-out: minimal inhibition concentration, Ec
[4] = system: Yersinia pseudotuberculosis ATCC 911; experiment: microbe, parasite or virus in culture; assay type: cell-based; conditions: ATCC911, pH 7.3, read-out: minimal inhibition concentration, Yp
[5] = system: Pseudomonas aeruginosa ATCC 43288; experiment: Antimicrobial activity, broth double microdilution MIC; assay type: cell-based; conditions: ATCC43288, Mueller–Hinton broth pH 7.3, 18–24 h at 35 °C, – = no activity, read-out: minimal inhibition concentration, Pa
[6] = system: Enterococcus faecalis ATCC 29212; experiment: as above; assay type: cell-based; conditions: ATCC29212, Mueller–Hinton broth pH 7.3, 18–24 h at 35 °C, – = no activity, read-out: minimal inhibition concentration, Ef
[7] = system: Staphylococcus aureus ATCC 25923; experiment: as above; assay type: cell-based; conditions: ATCC25923, Mueller–Hinton broth pH 7.3, 18–24 h at 35 °C, – = no activity, read-out: minimal inhibition concentration, Sa
Bacillus cereus 702 Roma = experiment: as above; assay type: cell-based; conditions: pH 7.3, read-out: minimal inhibition concentration, Bc
all the microorganisms = experiment: Antimicrobial activity in vitro, whole panel; assay type: cell-based; conditions: result in words
[8] = ATCC607, read-out: minimal inhibition concentration, Ms
[9] = Candida albicans, ATCC60193, pH 7, read-out: minimal inhibition concentration, Ca
[10] = RSKK251, pH 7, read-out: minimal inhibition concentration, Sc

Chain of urease (P07374 whole entry, looked up): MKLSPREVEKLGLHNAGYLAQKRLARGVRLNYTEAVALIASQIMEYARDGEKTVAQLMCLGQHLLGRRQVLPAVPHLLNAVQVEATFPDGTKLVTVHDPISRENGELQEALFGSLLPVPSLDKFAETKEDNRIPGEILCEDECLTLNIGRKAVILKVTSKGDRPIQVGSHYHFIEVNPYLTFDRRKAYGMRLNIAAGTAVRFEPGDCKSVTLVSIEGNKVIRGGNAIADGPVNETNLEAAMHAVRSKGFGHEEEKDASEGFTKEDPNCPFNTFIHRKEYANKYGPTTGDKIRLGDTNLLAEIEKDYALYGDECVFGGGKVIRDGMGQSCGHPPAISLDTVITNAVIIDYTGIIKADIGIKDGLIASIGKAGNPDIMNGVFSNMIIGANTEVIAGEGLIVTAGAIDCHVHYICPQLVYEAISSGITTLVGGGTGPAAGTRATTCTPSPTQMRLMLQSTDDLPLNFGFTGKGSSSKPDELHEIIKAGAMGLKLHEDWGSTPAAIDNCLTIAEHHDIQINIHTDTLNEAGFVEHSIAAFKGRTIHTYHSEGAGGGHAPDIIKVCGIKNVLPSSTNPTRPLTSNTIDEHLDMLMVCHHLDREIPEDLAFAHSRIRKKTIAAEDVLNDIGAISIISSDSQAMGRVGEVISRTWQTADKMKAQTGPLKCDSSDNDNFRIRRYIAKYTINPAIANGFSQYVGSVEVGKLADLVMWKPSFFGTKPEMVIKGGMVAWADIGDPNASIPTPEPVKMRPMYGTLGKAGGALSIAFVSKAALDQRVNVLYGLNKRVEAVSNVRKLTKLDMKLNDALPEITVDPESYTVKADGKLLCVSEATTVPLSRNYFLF

| SMILES | MIC [1, 8] | MIC [2, 9] | MIC (S. cerevisiae RSKK 251; [10]) | melting point | IC50 (urease) | other results |
| --- | --- | --- | --- | --- | --- | --- |
| NNC(=O)CNc1ccc(N2CCOCC2)nc1 [Compound 4, 2-[6-(Morpholin-4-yl)pyridin-3-ylamino]acetohydrazide] | 125 µg/mL (≈ 497 µM) | 500 µg/mL (≈ 1990 µM) | 1000 µg/mL (≈ 3980 µM) | 175 to 177 °C | 7.92 ± 1.43 µM | – |
| Sc1nnc(CNc2ccc(N3CCOCC3)nc2)n1-c1ccccc1 [Compound 11] | – | – | – | 165 to 166 °C | – | – |
| Sc1nnc(CNc2ccc(N3CCOCC3)nc2)o1 [Compound 7, 5-{[(6-Morpholin-4-ylpyridin-3-yl)amino]methyl}-1,3,4-oxadiazole-2-thiol] | – | 500 µg/mL (≈ 1700 µM) | 1000 µg/mL (≈ 3410 µM) | 221 to 222 °C | 7.01 ± 0.68 µM | – |
| OC(Cn1cncn1)(Cn1cncn1)c1ccc(F)cc1F [Flu., Fluconazole, reference compound] | – | – | – | – | – | MIC ([2]; ATCC60193, Candida albicans ATCC 60193, buffered Yeast Nitrogen Base pH 7.0, 18–24 h at 35 °C, read-out: minimal inhibition concentration, Ca): < 8 µg/mL; MIC (S. cerevisiae RSKK 251; RSKK251, S. cerevisiae RSKK 251, buffered Yeast Nitrogen Base pH 7.0, 18–24 h at 35 °C, read-out: minimal inhibition concentration, Sc): < 8 µg/mL |
| O=C(CNc1ccc(N2CCOCC2)nc1)NNC(=S)Nc1ccccc1 [Compound 9, 2-{[(6-Morpholin-4-ylpyridin-3-yl)amino]acetyl}-N-phenylhydrazinecarbothioamide] | 125 µg/mL (≈ 323 µM) | 1000 µg/mL (≈ 2590 µM) | 1000 µg/mL (≈ 2590 µM) | 171 to 172 °C | 8.07 ± 1.25 µM | – |
| c1ccc(Nc2nnc(CNc3ccc(N4CCOCC4)nc3)s2)cc1 [Compound 12] | – | – | – | 172 to 173 °C | – | – |
| O=C(CNc1ccc(N2CCOCC2)nc1)N/N=C/C=C/c1ccccc1 [Compound 6, 2-{[6-(Morpholin-4-yl)pyridin-3-yl]amino}-N-(3-phenylallylidene)acetohydrazide] | – | 500 µg/mL (≈ 1370 µM) | 1000 µg/mL (≈ 2740 µM) | 194 to 195 °C | 8.29 ± 2.3 µM | – |
| O=C(CNc1ccc(N2CCOCC2)nc1)N/N=c1\sc(-c2ccc(Cl)cc2)cn1-c1ccccc1 [Compound 10] | – | 500 µg/mL (≈ 960 µM) | 1000 µg/mL (≈ 1920 µM) | 168 to 169 °C | 2.37 ± 0.19 µM | – |
| CN[C@@H]1[C@H](O[C@H]2[C@H](O[C@H]3[C@H](O)[C@@H](O)[C@H](N=C(N)N)[C@@H](O)[C@@H]3N=C(N)N)O[C@@H](C)[C@]2(O)C=O)O[C@@H](CO)[C@H](O)[C@H]1O [Str., Streptomisin, reference compound] | – | – | – | – | – | MIC ([1]; ATCC607, Mycobacterium smegmatis ATCC 607, Brain Heart Infusion broth, 48–72 h at 35 °C, – = no activity, read-out: minimal inhibition concentration, Ms): 4 µg/mL (≈ 6.88 µM) |
| S=c1oc(CNc2ccc(N3CCOCC3)nc2)nn1CN1CCN(c2ccccc2)CC1 [Compound 8, 5-{[(6-Morpholin-4-ylpyridin-3-yl)amino]methyl}-3-[(4-phenylpiperazin-1-yl)methyl]-1,3,4-oxadiazole-2(3H)-thione] | 125 µg/mL (≈ 267 µM) | 1000 µg/mL (≈ 2140 µM) | 1000 µg/mL (≈ 2140 µM) | 87 to 88 °C | 4.99 ± 0.59 µM | MIC [3]: 62.5 µg/mL (≈ 134 µM); MIC [4]: 62.5 µg/mL (≈ 134 µM); MIC [5]: 62.5 µg/mL (≈ 134 µM); MIC [6]: 31.3 µg/mL (≈ 66.9 µM); MIC [7]: 31.3 µg/mL (≈ 66.9 µM); MIC (Bacillus cereus 702 Roma): 62.5 µg/mL (≈ 134 µM); antimicrobial activity against all the microorganisms (all the microorganisms): active against all the microorganisms |
| O=C(CNc1ccc(N2CCOCC2)nc1)N/N=C1\SCC(=O)N1c1ccccc1 [Compound 13, 2-[(6-Morpholin-4-ylpyridin-3-yl)amino]-N’-(4-oxo-3-phenyl-1,3-thiazolidin-2-ylidene)acetohydrazide] | – | 500 µg/mL (≈ 1170 µM) | 1000 µg/mL (≈ 2340 µM) | 201 to 202 °C | 4.46 ± 0.22 µM | – |
| CC1(C)S[C@@H]2[C@H](NC(=O)[C@H](N)c3ccccc3)C(=O)N2[C@H]1C(=O)O [Amp., Ampicillin, reference compound] | – | – | – | – | – | MIC [3]: 8 µg/mL (≈ 22.9 µM); MIC [4]: 32 µg/mL (≈ 91.6 µM); MIC [5]: > 128 µg/mL; MIC [6]: 2 µg/mL (≈ 5.72 µM); MIC [7]: 2 µg/mL (≈ 5.72 µM); MIC (Bacillus cereus 702 Roma): < 1 µg/mL |
| O=C(CNc1ccc(N2CCOCC2)nc1)N/N=C/c1ccc(Br)cc1 [Compound 5, N-(4-Bromobenzylidene)-2-[6-(morpholin-4-yl)pyridin-3-ylamino]acetohydrazide] | 31.3 µg/mL (≈ 74.8 µM) | 1000 µg/mL (≈ 2390 µM) | 1000 µg/mL (≈ 2390 µM) | 163 to 164 °C | 6.87 ± 0.06 µM | – |
| CCOC(=O)CNc1ccc(N2CCOCC2)nc1 [Compound 3, Ethyl N-(6-morpholin-4-ylpyridin-3-yl)glycinate] | 125 µg/mL (≈ 471 µM) | 1000 µg/mL (≈ 3770 µM) | 1000 µg/mL (≈ 3770 µM) | 83 to 84 °C | 13.2 ± 2.25 µM | – |

From paper PMC3685705, “Antimicrobial and antiurease activities of newly synthesized morpholine derivatives containing an azole nucleus” (Medicinal Chemistry Research, 2012)
